What all share (assay type): biochemical
One assay addresses T1, Irak4 (Homo sapiens, UniProt Q9NWZ3).
T1 construct: purchased Invitrogen (assay run by Invitrogen)
T1 sequence (Q9NWZ3 1-460): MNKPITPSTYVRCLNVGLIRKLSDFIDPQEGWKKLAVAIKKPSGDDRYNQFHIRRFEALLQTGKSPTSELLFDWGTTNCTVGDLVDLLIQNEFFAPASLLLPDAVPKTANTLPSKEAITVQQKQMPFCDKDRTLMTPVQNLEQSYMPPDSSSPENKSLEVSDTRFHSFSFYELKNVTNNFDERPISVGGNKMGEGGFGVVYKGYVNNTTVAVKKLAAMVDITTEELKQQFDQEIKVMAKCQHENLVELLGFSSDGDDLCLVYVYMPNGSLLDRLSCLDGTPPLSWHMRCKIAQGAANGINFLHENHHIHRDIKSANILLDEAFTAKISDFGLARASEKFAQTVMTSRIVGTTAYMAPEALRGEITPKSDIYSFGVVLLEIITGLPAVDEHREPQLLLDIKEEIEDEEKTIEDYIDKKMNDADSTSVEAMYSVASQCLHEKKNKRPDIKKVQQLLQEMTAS
The assay is described as follows: Z'-Lyte FRET kinase assay (Invitrogen), Irak4. The note with it: read-out: IC50, activity toward kinase Irak4. The text has this: (§1) The effect of potential modulators of kinase activity can be measured in a variety of different assays known in the art. For example, direct radiometric, indirect FRET or AlphaScreen assays may be used to assess the level of phosphorylation of a substrate in the presence of test compounds in order to determine the inhibitory affect of the compound on the kinase. Invitrogen (Carlsbad, Calif.) uses a FRET based assay for Btk, EGFR, EphB2, Flt3, lrak4, Kdr, MAP2K1, MAPKAPK2, PDGFRB, PKC theta, Stk6 and Yes. For these assays, compounds of the invention were screened by Invitrogen using Z′-Lyte™ kinase assay.
Briefly, the Invitrogen kinase assay involves use of a specific peptide substrate optimized for each kinase, containing a fluorophore at each end that make up the FRET pair. The peptide sensitivity to proteolytic cleavage depends on phosphorylation of the peptide. Non-phosphorylated peptide is cleaved by a protease while peptide phosphorylated by the kinase is not cleaved. Cleavage of the peptide disrupts the FRET between the donor (coumarin) and acceptor (fluorescein) fluorophores, resulting in an increase in the ratio of donor emission to acceptor emission. The emission ratio of coumarin to fluorescein is used to assess the reaction progress. The extent of phosphorylation is determined from the emission ratio, which is low when the kinase is active (phosphorylated peptide is not cleaved, FRET pair connected) or higher for inhibited kinase (non-phosphorylated peptide is cleaved, FRET pair separated). Thus, the assay involves a kinase reaction in the presence of varying concentrations of a given compound, a development reaction with site specific protease, and detection of the fluorescent emission ratio of coumarin and fluorscein. […] Reaction conditions for each kinase are determined to provide optimal reaction times, incubation temperature, kinase and ATP concentrations. Test samples are made up in 1× kinase buffer (50 mM HEPES pH 7.5, 50 mM MgCl2, 5 mM EGTA, 0.05% BRIJ-35) and compound at desired concentration prepared in DMSO such that the final DMSO is 1%. […] Typically, assay plates are prepared to 10 μl final volume per sample, adding 2.5 μl of compound at 4× the desired concentration in 4% DMSO (serial dilution of compound provides concentration curve), 5 μl of the desired kinase mixed with Z′-LYTE™ peptide substrate (2× in 2× kinase buffer, final peptide at 2 μM), and 2.5 μl of 4×ATP solution. All kinase except for MAP2K1 were at 10 μM ATP in the kinase reaction, while MAP2K1 was at 100 μM. Samples are mixed and the kinase reaction is incubated 1 hour at room temperature, after which 5 μl of development solution is added and mixed. After incubation for another 1 hour at room temperature, 5 μl of stop reagent is added to each sample and mixed. The fluorescence signals are measured to determine the emission ratio.

For a further assay, the target named is TrkA (Homo sapiens, UniProt P04629). The assay is described as follows: AlphaScreen kinase assay, TrkA. The note with it: read-out: IC50, activity toward kinase TrkA. An excerpt: (§2) AlphaScreen assay was used to screen additional kinases. The assay is similarly dependent on the phosphorylation of a peptide substrate. In this assay, an antibody that recognizes phosphorylated substrate is bound to an acceptor bead. The peptide substrate is attached to biotin, which binds to a donor head that contains streptavidin. Thus phosphorylated substrate is bound by antibody and streptavidin, bringing the donor and acceptor heads into close proximity when kinase is not inhibited. The donor produces singlet oxygen which results in emission from the acceptor when they are in close proximity. Conversely, when kinase is inhibited, the donor and acceptor beads are not associated and the emission from the acceptor is reduced.
Chain of TrkA (P04629 33-796): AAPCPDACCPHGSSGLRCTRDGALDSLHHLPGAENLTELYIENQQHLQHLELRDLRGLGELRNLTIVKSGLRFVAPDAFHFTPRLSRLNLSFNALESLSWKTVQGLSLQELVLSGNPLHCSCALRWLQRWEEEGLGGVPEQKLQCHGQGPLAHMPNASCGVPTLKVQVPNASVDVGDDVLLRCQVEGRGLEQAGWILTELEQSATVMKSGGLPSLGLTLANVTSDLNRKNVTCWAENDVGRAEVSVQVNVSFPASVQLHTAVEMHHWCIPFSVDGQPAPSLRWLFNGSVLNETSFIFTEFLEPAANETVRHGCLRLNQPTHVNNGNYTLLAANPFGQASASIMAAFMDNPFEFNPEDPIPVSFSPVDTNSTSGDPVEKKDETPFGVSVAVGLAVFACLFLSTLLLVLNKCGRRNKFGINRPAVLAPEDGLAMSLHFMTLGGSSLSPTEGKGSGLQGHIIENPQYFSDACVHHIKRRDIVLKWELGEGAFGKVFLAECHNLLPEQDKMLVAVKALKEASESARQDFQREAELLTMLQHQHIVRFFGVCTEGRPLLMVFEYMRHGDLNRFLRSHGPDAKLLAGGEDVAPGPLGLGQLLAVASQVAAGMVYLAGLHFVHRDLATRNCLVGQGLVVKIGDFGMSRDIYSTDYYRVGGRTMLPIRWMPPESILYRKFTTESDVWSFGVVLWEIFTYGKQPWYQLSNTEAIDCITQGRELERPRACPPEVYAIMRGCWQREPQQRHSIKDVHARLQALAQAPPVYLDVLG
(§3) AlphaScreen assays were done using compounds dissolved in DMSO to a concentration of 20 mM. The compounds were diluted accordingly to the desired final concentrations in each sample well, using 1:3 serial dilution for a total of 8 concentration points.
For orientation: Alpha assays give light when donor and acceptor beads are brought close together.

The target in a further assay is MLK1 (Homo sapiens, UniProt P80192). In words: AlphaScreen kinase assay, MLK1. To be noted: read-out: IC50, activity toward kinase MLK1.
Chain of MLK1 (P80192 whole entry): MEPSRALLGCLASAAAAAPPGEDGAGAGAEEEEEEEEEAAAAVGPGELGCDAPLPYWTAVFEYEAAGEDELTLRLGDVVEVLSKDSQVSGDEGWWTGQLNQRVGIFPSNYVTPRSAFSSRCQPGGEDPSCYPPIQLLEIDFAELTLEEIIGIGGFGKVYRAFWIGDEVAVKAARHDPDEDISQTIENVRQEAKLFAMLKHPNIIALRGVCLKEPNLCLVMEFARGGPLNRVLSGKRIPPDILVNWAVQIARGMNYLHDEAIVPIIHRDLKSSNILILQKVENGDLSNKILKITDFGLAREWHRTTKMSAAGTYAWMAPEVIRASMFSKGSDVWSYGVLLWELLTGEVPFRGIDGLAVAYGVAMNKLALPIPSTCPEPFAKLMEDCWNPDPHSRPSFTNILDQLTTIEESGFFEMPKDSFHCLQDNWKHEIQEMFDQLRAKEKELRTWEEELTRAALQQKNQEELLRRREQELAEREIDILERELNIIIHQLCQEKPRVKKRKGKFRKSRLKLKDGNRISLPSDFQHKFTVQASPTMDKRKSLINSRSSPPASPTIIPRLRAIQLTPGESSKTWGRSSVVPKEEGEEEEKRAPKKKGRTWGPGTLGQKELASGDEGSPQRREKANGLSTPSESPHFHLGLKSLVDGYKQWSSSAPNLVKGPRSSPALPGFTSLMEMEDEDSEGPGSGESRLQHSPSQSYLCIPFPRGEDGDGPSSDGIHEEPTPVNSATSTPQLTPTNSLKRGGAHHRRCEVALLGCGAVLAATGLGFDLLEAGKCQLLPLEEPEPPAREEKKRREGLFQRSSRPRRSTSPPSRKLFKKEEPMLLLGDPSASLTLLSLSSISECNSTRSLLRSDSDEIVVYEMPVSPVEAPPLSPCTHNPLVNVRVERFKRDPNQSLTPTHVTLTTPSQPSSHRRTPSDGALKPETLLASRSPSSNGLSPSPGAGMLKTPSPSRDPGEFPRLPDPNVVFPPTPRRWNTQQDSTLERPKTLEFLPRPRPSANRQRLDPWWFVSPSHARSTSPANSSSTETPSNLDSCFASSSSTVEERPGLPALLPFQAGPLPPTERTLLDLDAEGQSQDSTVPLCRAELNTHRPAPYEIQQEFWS
From the text: as §2, §3

Another assay has as its target Plk1 (Homo sapiens, UniProt P53350). In words: AlphaScreen kinase assay, Plk1. The note with it: read-out: IC50, activity toward kinase Plk1. In a few lines: (§4)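 Eight concentrations per compound (1:3 serial dilution of 20 mM DMSO stock) were tested. Read-out: AlphaScreen signal from phospho-antibody acceptor and streptavidin donor beads bound to biotinylated peptide substrate, reduced on kinase inhibition.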

The next assay addresses T2, TEC (Homo sapiens, UniProt P42680).
T2 sequence (P42680 1-631): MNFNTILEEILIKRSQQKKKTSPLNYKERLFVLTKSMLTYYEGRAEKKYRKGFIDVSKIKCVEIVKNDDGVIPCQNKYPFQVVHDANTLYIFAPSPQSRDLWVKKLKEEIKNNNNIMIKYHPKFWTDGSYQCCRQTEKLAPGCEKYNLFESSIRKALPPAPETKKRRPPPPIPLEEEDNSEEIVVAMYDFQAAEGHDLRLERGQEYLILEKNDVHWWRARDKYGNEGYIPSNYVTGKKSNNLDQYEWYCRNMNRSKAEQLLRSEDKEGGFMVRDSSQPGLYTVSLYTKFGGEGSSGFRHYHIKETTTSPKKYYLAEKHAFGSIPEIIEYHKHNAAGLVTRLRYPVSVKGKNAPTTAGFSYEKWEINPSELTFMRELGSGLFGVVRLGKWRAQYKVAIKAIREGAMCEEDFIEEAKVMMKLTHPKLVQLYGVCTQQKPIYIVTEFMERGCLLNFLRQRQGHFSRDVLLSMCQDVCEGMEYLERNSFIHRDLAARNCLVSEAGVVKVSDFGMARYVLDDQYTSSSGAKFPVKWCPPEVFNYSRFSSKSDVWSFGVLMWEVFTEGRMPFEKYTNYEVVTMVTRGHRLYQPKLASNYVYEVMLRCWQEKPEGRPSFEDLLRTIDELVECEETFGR
In words: AlphaScreen kinase assay, TEC. The note with it: read-out: IC50, activity toward kinase TEC. In a few lines: as §4

The next assay addresses T3, PDGFRB (Homo sapiens, UniProt P09619).
T3 construct: purchased Invitrogen (Carlsbad, Calif.), screening service
In words: Z'-Lyte FRET kinase assay (Invitrogen), PDGFRB. To be noted: read-out: IC50, activity toward kinase PDGFRB.
From the text: as §1
Briefly, the Invitrogen kinase assay involves use of a specific peptide substrate optimized for each kinase, containing a fluorophore at each end that make up the FRET pair. The peptide sensitivity to proteolytic cleavage depends on phosphorylation of the peptide. […] The extent of phosphorylation is determined from the emission ratio, which is low when the kinase is active (phosphorylated peptide is not cleaved, FRET pair connected) or higher for inhibited kinase (non-phosphorylated peptide is cleaved, FRET pair separated). […] Reaction conditions for each kinase are determined to provide optimal reaction times, incubation temperature, kinase and ATP concentrations. […] The fluorescence signals are measured to determine the emission ratio.

The next assay deals with EphA2 (Homo sapiens, UniProt P29317). The assay is described as follows: AlphaScreen kinase assay, EphA2. To be noted: read-out: IC50, activity toward kinase EphA2.
Chain of EphA2 (P29317 24-976): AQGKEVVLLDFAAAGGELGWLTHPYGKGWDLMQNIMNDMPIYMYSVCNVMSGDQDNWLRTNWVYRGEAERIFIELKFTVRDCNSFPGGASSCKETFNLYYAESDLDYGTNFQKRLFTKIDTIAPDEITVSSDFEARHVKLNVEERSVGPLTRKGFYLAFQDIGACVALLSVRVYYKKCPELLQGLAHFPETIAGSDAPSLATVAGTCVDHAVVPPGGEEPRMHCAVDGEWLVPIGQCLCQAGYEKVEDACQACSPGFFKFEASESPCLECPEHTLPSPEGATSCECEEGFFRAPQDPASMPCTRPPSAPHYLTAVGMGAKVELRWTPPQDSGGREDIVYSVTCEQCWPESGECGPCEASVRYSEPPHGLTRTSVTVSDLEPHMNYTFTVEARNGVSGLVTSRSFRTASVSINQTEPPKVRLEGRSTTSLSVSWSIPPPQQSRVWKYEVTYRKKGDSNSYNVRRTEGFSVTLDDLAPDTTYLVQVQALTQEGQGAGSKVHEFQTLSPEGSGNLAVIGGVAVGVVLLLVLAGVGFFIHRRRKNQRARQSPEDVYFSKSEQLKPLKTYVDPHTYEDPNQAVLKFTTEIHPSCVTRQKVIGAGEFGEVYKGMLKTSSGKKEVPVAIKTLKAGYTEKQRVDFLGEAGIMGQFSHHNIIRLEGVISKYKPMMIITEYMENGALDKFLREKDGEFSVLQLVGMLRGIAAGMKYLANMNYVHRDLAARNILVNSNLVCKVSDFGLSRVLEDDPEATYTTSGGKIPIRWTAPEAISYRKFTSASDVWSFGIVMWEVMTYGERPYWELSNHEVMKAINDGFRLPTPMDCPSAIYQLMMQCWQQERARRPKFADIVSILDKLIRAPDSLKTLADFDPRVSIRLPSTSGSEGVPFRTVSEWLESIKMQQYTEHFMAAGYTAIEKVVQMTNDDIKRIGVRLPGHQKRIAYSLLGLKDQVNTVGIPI
From the text: as §2, §3

Where only a bound is given, the exact number is not on record here.

Chain of Plk1 (P53350 whole entry): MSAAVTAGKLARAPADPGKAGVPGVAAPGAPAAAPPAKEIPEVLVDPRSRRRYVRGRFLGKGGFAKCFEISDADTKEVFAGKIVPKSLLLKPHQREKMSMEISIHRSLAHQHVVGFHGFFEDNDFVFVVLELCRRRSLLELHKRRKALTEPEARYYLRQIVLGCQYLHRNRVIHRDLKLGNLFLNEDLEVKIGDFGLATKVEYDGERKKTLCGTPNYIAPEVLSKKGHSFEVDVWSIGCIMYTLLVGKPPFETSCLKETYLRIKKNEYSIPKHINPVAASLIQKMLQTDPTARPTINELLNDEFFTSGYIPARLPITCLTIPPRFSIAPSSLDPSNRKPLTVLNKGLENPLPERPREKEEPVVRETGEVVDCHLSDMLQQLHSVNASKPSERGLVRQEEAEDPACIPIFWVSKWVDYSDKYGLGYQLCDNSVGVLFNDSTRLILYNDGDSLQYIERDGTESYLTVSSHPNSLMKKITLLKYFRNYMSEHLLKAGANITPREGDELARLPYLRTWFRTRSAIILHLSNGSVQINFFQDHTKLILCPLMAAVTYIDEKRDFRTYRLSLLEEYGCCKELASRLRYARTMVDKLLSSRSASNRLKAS
T3 sequence (P09619 33-1106): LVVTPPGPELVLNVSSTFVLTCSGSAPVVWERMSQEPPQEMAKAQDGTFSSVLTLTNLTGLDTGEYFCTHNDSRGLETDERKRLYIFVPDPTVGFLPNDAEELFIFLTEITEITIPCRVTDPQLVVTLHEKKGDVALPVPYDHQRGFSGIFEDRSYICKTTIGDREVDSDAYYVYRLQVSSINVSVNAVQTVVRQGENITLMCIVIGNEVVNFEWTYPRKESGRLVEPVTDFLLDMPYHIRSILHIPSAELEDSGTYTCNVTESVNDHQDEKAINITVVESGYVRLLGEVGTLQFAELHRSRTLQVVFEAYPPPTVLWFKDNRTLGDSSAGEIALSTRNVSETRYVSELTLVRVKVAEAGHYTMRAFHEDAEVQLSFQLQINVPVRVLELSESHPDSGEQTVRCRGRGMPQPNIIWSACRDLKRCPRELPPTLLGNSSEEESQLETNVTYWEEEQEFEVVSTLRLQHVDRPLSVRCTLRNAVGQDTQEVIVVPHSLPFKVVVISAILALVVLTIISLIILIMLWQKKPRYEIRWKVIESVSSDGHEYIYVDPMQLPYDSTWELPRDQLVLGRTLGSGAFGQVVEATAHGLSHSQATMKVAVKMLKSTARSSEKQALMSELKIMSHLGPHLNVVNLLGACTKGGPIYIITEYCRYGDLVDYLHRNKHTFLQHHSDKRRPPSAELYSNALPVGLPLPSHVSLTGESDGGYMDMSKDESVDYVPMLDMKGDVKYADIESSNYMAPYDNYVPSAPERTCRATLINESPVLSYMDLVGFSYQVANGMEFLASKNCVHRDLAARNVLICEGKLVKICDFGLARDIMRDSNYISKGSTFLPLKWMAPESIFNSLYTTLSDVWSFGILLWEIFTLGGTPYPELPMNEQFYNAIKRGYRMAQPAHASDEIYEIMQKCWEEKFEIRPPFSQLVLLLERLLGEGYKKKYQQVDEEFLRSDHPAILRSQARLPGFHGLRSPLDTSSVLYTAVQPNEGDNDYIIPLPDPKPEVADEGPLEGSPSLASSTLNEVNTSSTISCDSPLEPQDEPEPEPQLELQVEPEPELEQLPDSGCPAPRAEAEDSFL

Regarding `Nc1cccc(-c2cnc3[nH]cc(C(=O)c4cc(O)ccc4F)c3c2)c1` [Compound P-0002], the IC50 on Irak4 was at most 10 µM.

Consider `COc1cc(OC)cc(C(=O)c2c[nH]c3ncc(-c4cccc(NS(C)(=O)=O)c4)cc23)c1` [Compound P-1426, N-{3-[3-(3,5-Dimethoxy-benzoyl)-1H-pyrrolo[2,3-b]pyridin-5-yl]-phenyl}-methanesulfonamide], for which the IC50 at TrkA and at MLK1 was at most 10 µM in each case.

As for `CS(=O)(=O)c1cccc(-c2cnc3[nH]cc(C(O)c4c(F)ccc(F)c4F)c3c2)c1` (stereo not shown) [Compound P-0020], the IC50 at Irak4 is at most 10 µM.

In the case of `Nc1cccc(-c2ccnc3[nH]cc(C(=O)c4cc(F)ccc4F)c23)c1` [Compound P-0046], the IC50 on Plk1 is at most 10 µM.

In the case of `O=C(O)/C=C/c1cccc(-c2cnc3[nH]cc(C(=O)c4ccccc4F)c3c2)c1` [Compound P-0033], on TEC, the IC50 was at most 10 µM.

Turning to `CCCS(=O)(=O)Nc1ccc(F)c(C(=O)c2c[nH]c3ncc(-c4cccnc4)cc23)c1F` [Compound P-0088, Propane-1-sulfonic acid [2,4-difluoro-3-(5-pyridin-3-yl-1H-pyrrolo[2,3-b]pyridine-3-carbonyl)-phenyl]-amide], the IC50 on TEC and on PDGFRB was at most 10 µM throughout.

On to `Nc1cccc(-c2ccnc3[nH]cc(C(=O)c4ccccc4F)c23)c1` [Compound P-0022], for which the half-inhibitory concentration (IC50) on Plk1 is at most 10 µM.

As for `CN(C)S(=O)(=O)Nc1ccc(F)c(Cc2c[nH]c3ncc(-c4cccnc4)cc23)c1F` [Compound P-0166], the IC50 at TEC was at most 10 µM.

Take `O=C(Nc1ccc(Cc2c[nH]c3ncccc23)cc1)Nc1cccc(C(F)(F)F)c1` [Compound P-0262, 1-[4-(1H-Pyrrolo[2,3-b]pyridin-3-ylmethyl)-phenyl]-3-(3-trifluoromethyl-phenyl)-urea]: at PDGFRB, the IC50 is at most 10 µM.

Turning to `COc1cccc(C(=O)c2c[nH]c3ncc(-c4cccc(NC(C)=O)c4)cc23)c1F` [Compound P-1336, N-{3-[3-(2-Fluoro-3-methoxy-benzoyl)-1H-pyrrolo[2,3-b]pyridin-5-yl]-phenyl}-acetamide], the concentration for half-maximal inhibition (IC50) on MLK1 and at EphA2 was at most 10 µM in each case.

Turning to `Cc1ccccc1C(=O)c1c[nH]c2nccc(-c3ccc(C(N)=O)cc3)c12` [Compound P-0017], the IC50 at TEC was at most 10 µM.

As to `CCCS(=O)(=O)Nc1ccc(F)c(C(=O)c2c[nH]c3ncc(OC)cc23)c1F` [Compound P-0806, Propane-1-sulfonic acid [2,4-difluoro-3-(5-methoxy-1H-pyrrolo[2,3-b]pyridine-3-carbonyl)-phenyl]-amide], the IC50 at TrkA is at most 10 µM.

Regarding `O=C(c1cccc(O)c1F)c1c[nH]c2ncc(Br)cc12` [Compound P-0067, (5-bromo-1H-pyrrolo[2,3-b]pyridin-3-yl)-(2-fluoro-3-hydroxy-phenyl)-methanone], the 50% inhibitory concentration (IC50) at Plk1 is at most 10 µM.

Regarding `Cc1ccccc1C(=O)c1c[nH]c2nccc(-c3cccc(N)c3)c12` [Compound P-0044], the IC50 at TEC and on Plk1 was at most 10 µM each time.

In the case of `OCCOc1ccc(F)c(Cc2c[nH]c3ncc(-c4cccnc4)cc23)c1F` [Compound P-1394, 2-[2,4-Difluoro-3-(5-pyridin-3-yl-1H-pyrrolo[2,3-b]pyridin-3-ylmethyl)-phenoxy]-ethanol], the 50% inhibitory concentration (IC50) on EphA2 was at most 10 µM.

For orientation: IC50 means the point on the concentration scale where inhibition reaches its midpoint.

Values taken from patent US8415469B2, “Compounds and methods for kinase modulation, and indications therefor” (Plexxikon Inc., priority 2005, dated 2013).
